# ChEMBL document CHEMBL1201862, “PubChem BioAssay data set” (2004)
#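 Exposure lasted 48 hours, with cells grown in 96-well plates and compounds tested at five concentrations. GI50 marks 50% less growth.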 Active and inactive are the calls of the source. Cut-off read from the data, not from the text of the source: active = GI50 up to about 1.1 µM and inactive = higher.
# What was measured:
# Assay in all cases: NCI anticancer screen, dose series, 48 h
# T47D = tested on: T47D
# UO-31 = tested on: UO-31
# OVCAR-8 = tested on: OVCAR-8
# SW-620 = tested on: SW-620
# MDA-MB-231 = tested on: MDA-MB-231
# NCI-H460 = tested on: NCI-H460
# SK-MEL-5 = tested on: SK-MEL-5
# MDA-MB-435 = tested on: MDA-MB-435
# HOP-92 = tested on: HOP-92
# A549 = tested on: A549
# SK-MEL-2 = tested on: SK-MEL-2
# OVCAR-5 = tested on: OVCAR-5
# 786-0 = tested on: 786-0
# MCF7 = tested on: MCF7
# BT-549 = tested on: BT-549
# SF-539 = tested on: SF-539
# PC-3 = tested on: PC-3
# Hs-578T = tested on: Hs-578T
# OVCAR-4 = tested on: OVCAR-4
SMILES,GI50 (T47D),GI50 (UO-31),GI50 (OVCAR-8),GI50 (SW-620),GI50 (MDA-MB-231),GI50 (NCI-H460),GI50 (SK-MEL-5),GI50 (MDA-MB-435),GI50 (HOP-92),GI50 (A549),GI50 (SK-MEL-2),GI50 (OVCAR-5),GI50 (786-0),GI50 (MCF7),GI50 (BT-549),GI50 (SF-539),GI50 (PC-3),GI50 (Hs-578T),GI50 (OVCAR-4)
COc1ccc(S(=O)(=O)NC(CCC(=O)NC(N)=O)C(=O)NC(N)=O)cc1 (configuration not stated),> 100 µM (inactive),> 100 µM (inactive),> 100 µM (inactive),> 100 µM (inactive),> 100 µM (inactive),> 100 µM (inactive),> 100 µM (inactive),> 100 µM (inactive),> 100 µM (inactive),> 100 µM (inactive),> 100 µM (inactive),> 100 µM (inactive),> 100 µM (inactive),> 100 µM (inactive),> 100 µM (inactive),> 100 µM (inactive),> 100 µM (inactive),> 100 µM (inactive),> 100 µM (inactive)
N#C/C(=C(\O)C(=O)O)c1ccc(-c2cccc3ccccc23)cc1,> 100 µM (inactive),> 100 µM (inactive),> 100 µM (inactive),> 100 µM (inactive),> 100 µM (inactive),> 100 µM (inactive),> 100 µM (inactive),> 100 µM (inactive),> 100 µM (inactive),> 100 µM (inactive),> 100 µM (inactive),> 100 µM (inactive),> 100 µM (inactive),> 100 µM (inactive),> 100 µM (inactive),> 100 µM (inactive),> 100 µM (inactive),> 100 µM (inactive),> 100 µM (inactive)
NS(=O)(=O)c1ccc(NCc2cnc3ccccc3n2)cc1,> 100 µM (inactive),> 100 µM (inactive),> 100 µM (inactive),> 100 µM (inactive),> 100 µM (inactive),> 100 µM (inactive),> 100 µM (inactive),> 100 µM (inactive),> 100 µM (inactive),> 100 µM (inactive),> 100 µM (inactive),> 100 µM (inactive),> 100 µM (inactive),> 100 µM (inactive),> 100 µM (inactive),> 100 µM (inactive),> 100 µM (inactive),> 100 µM (inactive),> 100 µM (inactive)
Cc1cc(Cc2cc(C)cc(C(C)(C)C)c2O)c(O)c(Cc2cc(C)cc(C(C)(C)C)c2O)c1,3.01 µM (inactive),2.98 µM (inactive),2.75 µM (inactive),3.34 µM (inactive),1.79 µM (inactive),1.57 µM (inactive),1.08 µM (active),3.12 µM (inactive),2.24 µM (inactive),3.06 µM (inactive),2.16 µM (inactive),3.48 µM (inactive),3.15 µM (inactive),2.34 µM (inactive),1.87 µM (inactive),2.51 µM (inactive),2.75 µM (inactive),1.67 µM (inactive),4.05 µM (inactive)
O=C(Nn1cnn2c(=O)c3ccccc3nc2c1=O)c1ccccc1,> 100 µM (inactive),> 100 µM (inactive),> 100 µM (inactive),> 100 µM (inactive),> 100 µM (inactive),> 100 µM (inactive),> 100 µM (inactive),> 100 µM (inactive),> 100 µM (inactive),> 100 µM (inactive),> 100 µM (inactive),> 100 µM (inactive),> 100 µM (inactive),> 100 µM (inactive),> 100 µM (inactive),> 100 µM (inactive),> 100 µM (inactive),> 100 µM (inactive),> 100 µM (inactive)
Cc1cnc2sn(-c3ccc(Br)cc3)c(=O)c2c1,13.4 µM (inactive),43.9 µM (inactive),62.5 µM (inactive),28.6 µM (inactive),30.5 µM (inactive),32.5 µM (inactive),42.6 µM (inactive),40 µM (inactive),26.9 µM (inactive),36.6 µM (inactive),> 100 µM (inactive),44.2 µM (inactive),37.5 µM (inactive),30.3 µM (inactive),35 µM (inactive),31.3 µM (inactive),36.6 µM (inactive),30.7 µM (inactive),26.2 µM (inactive)
C1CC2CN(CCCN3CCOCC3)C(C1)O2 (configuration not stated),> 100 µM (inactive),> 100 µM (inactive),> 100 µM (inactive),> 100 µM (inactive),> 100 µM (inactive),> 100 µM (inactive),> 100 µM (inactive),> 100 µM (inactive),> 100 µM (inactive),> 100 µM (inactive),> 100 µM (inactive),> 100 µM (inactive),> 100 µM (inactive),> 100 µM (inactive),> 100 µM (inactive),> 100 µM (inactive),> 100 µM (inactive),> 100 µM (inactive),> 100 µM (inactive)
O=C(OCc1ccc([N+](=O)[O-])cc1)N1c2ccccc2[C@@]23O[C@]24CCC[C@H]3C#C/C=C\C#C[C@H]14,> 100 µM (inactive),> 100 µM (inactive),> 100 µM (inactive),72.9 µM (inactive),> 100 µM (inactive),1.17 µM (inactive),> 100 µM (inactive),> 100 µM (inactive),> 100 µM (inactive),8.77 µM (inactive),> 100 µM (inactive),> 100 µM (inactive),> 100 µM (inactive),8.18 µM (inactive),> 100 µM (inactive),> 100 µM (inactive),> 100 µM (inactive),58.9 µM (inactive),> 100 µM (inactive)
CC(C(=O)c1ccccc1)C(c1ccccc1)N1CCOCC1 (configuration not stated),> 100 µM (inactive),–,> 100 µM (inactive),> 100 µM (inactive),> 100 µM (inactive),> 100 µM (inactive),> 100 µM (inactive),> 100 µM (inactive),> 100 µM (inactive),> 100 µM (inactive),> 100 µM (inactive),> 100 µM (inactive),> 100 µM (inactive),> 100 µM (inactive),> 100 µM (inactive),> 100 µM (inactive),> 100 µM (inactive),> 100 µM (inactive),> 100 µM (inactive)
O=C1C(=Cc2ccco2)C(=O)C2CCCCC12 (configuration not stated),> 100 µM (inactive),–,> 100 µM (inactive),> 100 µM (inactive),> 100 µM (inactive),> 100 µM (inactive),> 100 µM (inactive),> 100 µM (inactive),> 100 µM (inactive),> 100 µM (inactive),> 100 µM (inactive),> 100 µM (inactive),> 100 µM (inactive),> 100 µM (inactive),> 100 µM (inactive),> 100 µM (inactive),> 100 µM (inactive),> 100 µM (inactive),> 100 µM (inactive)
CC(SCc1ccccc1)C(=O)O (configuration not stated),> 100 µM (inactive),> 100 µM (inactive),> 100 µM (inactive),> 100 µM (inactive),> 100 µM (inactive),> 100 µM (inactive),> 100 µM (inactive),> 100 µM (inactive),> 100 µM (inactive),> 100 µM (inactive),> 100 µM (inactive),> 100 µM (inactive),> 100 µM (inactive),> 100 µM (inactive),> 100 µM (inactive),> 100 µM (inactive),> 100 µM (inactive),> 100 µM (inactive),> 100 µM (inactive)
C[C@@H]1C[C@H]2OC(=O)[C@@]3(C)CCC[C@@](C)([C@@H]23)[C@@]1(O)CCc1ccoc1,> 100 µM (inactive),> 59.3 µM (inactive),> 100 µM (inactive),> 100 µM (inactive),> 100 µM (inactive),56.9 µM (inactive),40.6 µM (inactive),> 100 µM (inactive),> 100 µM (inactive),> 100 µM (inactive),> 100 µM (inactive),> 100 µM (inactive),> 100 µM (inactive),> 80.2 µM (inactive),> 49.8 µM (inactive),> 100 µM (inactive),> 100 µM (inactive),> 100 µM (inactive),> 64.9 µM (inactive)
CCCc1cn2c(/C=N/NC(=N)N)c(-c3cccc([N+](=O)[O-])c3)nc2s1,1.94 µM (inactive),1.9 µM (inactive),1.88 µM (inactive),3.08 µM (inactive),1.47 µM (inactive),2.22 µM (inactive),1.98 µM (inactive),1.76 µM (inactive),11.1 µM (inactive),1.73 µM (inactive),2.1 µM (inactive),1.81 µM (inactive),1.95 µM (inactive),2.48 µM (inactive),1.57 µM (inactive),1.69 µM (inactive),2.59 µM (inactive),2.68 µM (inactive),1.47 µM (inactive)
CC(=O)Nc1cc2cc(NS(=O)(=O)c3ccc(Cl)c(Cl)c3)ccc2oc1=O,3.21 µM (inactive),46 µM (inactive),17.8 µM (inactive),50.7 µM (inactive),17.2 µM (inactive),37.8 µM (inactive),28.1 µM (inactive),36.1 µM (inactive),20.8 µM (inactive),32.7 µM (inactive),20.3 µM (inactive),> 100 µM (inactive),17.4 µM (inactive),21.2 µM (inactive),49.1 µM (inactive),25.1 µM (inactive),22.4 µM (inactive),22.4 µM (inactive),30.3 µM (inactive)
[N-]=[N+]=Nc1c(C=O)c(=O)n(-c2ccccc2)c2ccccc12,13.9 µM (inactive),16.2 µM (inactive),–,2.51 µM (inactive),40.3 µM (inactive),29.6 µM (inactive),14.1 µM (inactive),18.5 µM (inactive),13.4 µM (inactive),39.3 µM (inactive),29.2 µM (inactive),55.8 µM (inactive),18.5 µM (inactive),27 µM (inactive),31.8 µM (inactive),73.5 µM (inactive),14.4 µM (inactive),25.1 µM (inactive),16.7 µM (inactive)
